Results from US9296758B2, “2-quinolinyl-acetic acid derivatives as HIV antiviral compounds” (GILEAD SCIENCES, INC., priority 2010, dated 2016).

Tested on: HIV-IIIb
Assay: Test A: Antiviral Assays in MT4 Cells
Format: cell-based
Details: MT-4 cells infected with HIV-IIIb (0.004 m.o.i.), 5 days of incubation, CellTiter-Glo chemiluminescence readout
Method in brief: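 MT-4 cells pre-infected with HIV-IIIb (0.004 m.o.i.) or mock-infected, 2000 cells per well, were exposed to 10 three-fold serial compound dilutions in quadruplicate in RPMI 1640 with 10% FBS. After 5 days at 37° C, cell viability read by CellTiter-Glo chemiluminescence.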

[1] = Human immunodeficiency virus 1, IIIB, MT4, 120 h

| SMILES | EC50 [1] [nM] | EC50 [nM] |
| --- | --- | --- |
| Cc1cc2nc(-c3cn[nH]c3)ccc2c(-c2ccc(Cl)cc2)c1[C@H](OC(C)(C)C)C(=O)O [Compound 77, (S)-2-tert-butoxy-2-(5-(4-chlorophenyl)-7-methyl-2-(1H-pyrazol-4-yl)quinolin-6-yl)acetic acid] | 135 |  |
| Cc1cc2nc(-c3ccccn3)ccc2c(-c2ccc(Cl)cc2)c1[C@H](OC(C)(C)C)C(=O)O [Compound 79, (S)-2-tert-butoxy-2-(5-(4-chlorophenyl)-7-methyl-2-(pyridin-2-yl)quinolin-6-yl)acetic acid] | 86 |  |
| Cc1cc2nc(-c3cncn3C)ccc2c(-c2ccc(Cl)cc2)c1[C@H](OC(C)(C)C)C(=O)O [Compound 82, (S)-2-tert-Butoxy-2-(5-(4-chlorophenyl)-7-methyl-2-(1-methyl-1H-imidazol-5-yl)quinolin-6-yl)acetic acid] | 171 |  |
| Cc1cc2nc(-c3cn(C)cn3)ccc2c(-c2ccc(Cl)cc2)c1[C@H](OC(C)(C)C)C(=O)O [Compound 86, (S)-2-tert-butoxy-2-(5-(4-chlorophenyl)-7-methyl-2-(1-methyl-1H-imidazol-4-yl)quinolin-6-yl)acetic acid] | 78 |  |
| Cc1cc2nc(-c3cncnc3)ccc2c(-c2ccc(Cl)cc2)c1[C@H](OC(C)(C)C)C(=O)O [Compound 87, (S)-2-tert-Butoxy-2-(5-(4-chlorophenyl)-7-methyl-2-(pyrimidin-5-yl)quinolin-6-yl)acetic acid] | 175 |  |
| Cc1cc2nc(-c3ccnnc3)ccc2c(-c2ccc3c4c(ccnc24)CCO3)c1[C@H](OC(C)(C)C)C(=O)O [Compound 88, (S)-2-tert-butoxy-2-((R)-5-(2,3-dihydropyrano[4,3,2-de]quinolin-7-yl)-7-methyl-2-(pyridazin-4-yl)quinolin-6-yl)acetic acid] | 514 |  |
| Cc1ccc2c(-c3ccc4c(c3Cl)NCCO4)c([C@H](OC(C)(C)C)C(=O)O)c(C)cc2n1 [Compound 89, (S)-2-tert-Butoxy-2-((R)-5-(5-chloro-3,4-dihydro-2H-benzo[b][1,4]oxazin-6-yl)-2,7-dimethylquinolin-6-yl)acetic acid] |  | 42 |
| Cc1cc2nc(C(C)C)ccc2c(-c2ccc(Cl)cc2)c1[C@H](OC(C)(C)C)C(=O)O [Compound 90, (S)-2-tert-butoxy-2-(5-(4-chlorophenyl)-2-isopropyl-7-methylquinolin-6-yl)acetic acid] | 67 |  |
| Cc1cc2nc(-n3ccnc3)ccc2c(-c2ccc(Cl)cc2)c1[C@H](OC(C)(C)C)C(=O)O [Compound 91, (S)-2-tert-Butoxy-2-(5-(4-chlorophenyl)-2-(1H-imidazol-1-yl)-7-methylquinolin-6-yl)acetic acid] | 73 |  |
| Cc1cc2nc(N(C)CC(C)C)ccc2c(-c2ccc3c4c(ccnc24)CCO3)c1[C@H](OC(C)(C)C)C(=O)O [Compound 92, (S)-2-tert-butoxy-2-((R)-5-(2,3-dihydropyrano[4,3,2-de]quinolin-7-yl)-2-(isobutyl(methyl)amino)-7-methylquinolin-6-yl)acetic acid] | 300 |  |
| CCN(C)c1ccc2c(-c3ccc4c5c(ccnc35)CCO4)c([C@H](OC(C)(C)C)C(=O)O)c(C)cc2n1 [Compound 93, (S)-2-tert-Butoxy-2-((R)-5-(2,3-dihydropyrano[4,3,2-de]quinolin-7-yl)-2-(ethyl(methyl)amino)-7-methylquinolin-6-yl)acetic acid] | 94 |  |
| Cc1cc2nc(N3CCCC3)ccc2c(-c2ccc3c4c(ccnc24)CCO3)c1[C@H](OC(C)(C)C)C(=O)O [Compound 94, (S)-2-tert-butoxy-2-((R)-5-(2,3-dihydropyrano[4,3,2-de]quinolin-7-yl)-7-methyl-2-(pyrrolidin-1-yl)quinolin-6-yl)acetic acid] | 149 |  |
| Cc1cc2nc(N(C)C)ccc2c(-c2ccc3c4c(ccnc24)CCO3)c1[C@H](OC(C)(C)C)C(=O)O [Compound 96, (S)-2-tert-butoxy-2-((R)-5-(2,3-dihydropyrano[4,3,2-de]quinolin-7-yl)-2-(dimethylamino)-7-methylquinolin-6-yl)acetic acid] | 37 |  |
| Cc1cc2[nH]c(=O)ccc2c(-c2ccc3c4c(ccnc24)CCO3)c1[C@H](OC(C)(C)C)C(=O)O [Compound 97, (S)-2-tert-Butoxy-2-((R)-5-(2,3-dihydropyrano[4,3,2-de]quinolin-7-yl)-7-methyl-2-oxo-1,2-dihydroquinolin-6-yl)acetic acid] | 898 |  |
| Cc1cc2nc(-n3ccnc3)ccc2c(-c2ccc3c4c(ccnc24)CCO3)c1[C@H](OC(C)(C)C)C(=O)O [Compound 98, (S)-2-tert-butoxy-2-((R)-5-(2,3-dihydropyrano[4,3,2-de]quinolin-7-yl)-2-(1H-imidazol-1-yl)-7-methylquinolin-6-yl)acetic acid] | 251 |  |
| Cc1cc2nc(C(F)F)ccc2c(-c2ccc3c4c(ccnc24)CCO3)c1[C@H](OC(C)(C)C)C(=O)O [Compound 99, (S)-2-tert-butoxy-2-((R)-2-(difluoromethyl)-5-(2,3-dihydropyrano[4,3,2-de]quinolin-7-yl)-7-methylquinolin-6-yl)acetic acid] |  | 12 |
| Cc1cc2nc(C(F)F)ccc2c(-c2ccc(Cl)cc2)c1[C@H](OC(C)(C)C)C(=O)O [Compound 100, (S)-2-tert-butoxy-2-(5-(4-chlorophenyl)-2-(difluoromethyl)-7-methylquinolin-6-yl)acetic acid] | 75 |  |
| Cc1cc2c(ccc(=O)n2CCNC(=O)OCC2c3ccccc3-c3ccccc32)c(-c2ccc(Cl)cc2)c1[C@H](OC(C)(C)C)C(=O)O [Compound 101, (S)-2-(1-(2-(((9H-Fluoren-9-yl)methoxy)carbonylamino)ethyl)-5-(4-chlorophenyl)-7-methyl-2-oxo-1,2-dihydroquinolin-6-yl)-2-tert-butoxyacetic acid] | 367 |  |
| Cc1ccc2c(-c3ccc4c5c3CCCN5CCO4)c([C@H](OC(C)(C)C)C(=O)O)c(C)cc2n1 [Compound 103, (2S)-2-tert-butoxy-2-(2,7-dimethyl-5-(3,5,6,7-tetrahydro-2H-[1,4]oxazino[2,3,4-ij]quinolin-8-yl)quinolin-6-yl)acetic acid] | 25 |  |
| Cc1ccc2c(-c3ccc(Cl)cc3Cl)c([C@H](OC(C)(C)C)C(=O)O)c(C)cc2n1 [Compound 104] |  | 720 |
| Cc1cccnc1-c1ccc2c(-c3ccc4c5c(ccnc35)CCO4)c([C@H](OC(C)(C)C)C(=O)O)c(C)cc2n1 [Compound 106, (S)-2-tert-Butoxy-2-((R)-5-(2,3-dihydropyrano[4,3,2-de]quinolin-7-yl)-7-methyl-2-(3-methylpyridin-2-yl)quinolin-6-yl)acetic acid] |  | 25 |
| CC(=O)c1ccc2c(-c3ccc4c5c(ccnc35)CCO4)c([C@H](OC(C)(C)C)C(=O)O)c(C)cc2n1 [Compound 111, (S)-2-((R)-2-Acetyl-5-(2,3-dihydropyrano[4,3,2-de]quinolin-7-yl)-7-methylquinolin-6-yl)-2-tert-butoxyacetic acid] | 352 |  |
